Reference: paper PMC11543753, “The Ortholog Receptor Or67d in Drosophila Bipectinata is able to Detect Two Different Pheromones” (Journal of Chemical Ecology, 2024)

Assays:
[1] = test system: T1, DbipOr67d (Drosophila bipectinata); assay: single sensillum recording, spike rate of at1 neurons; type: cell-based; details: agonist; odor 10^-3 (v/v) in dichloromethane, 0.5 s puff; D. melanogaster at1 neurons expressing DbipOr67d; also tested in wild-type D. bipectinata at1
T1 construct: with Odorant receptor coreceptor (Drosophila melanogaster)

[2] = molecular target: T2, D. melanogaster Or67d (Drosophila melanogaster, UniProt Q9VT92); assay: as above; type: cell-based; details: agonist; odor 10^-3 (v/v) in dichloromethane, 0.5 s puff; native at1 neurons of wild-type CS flies
T2 construct: native receptor in at1 trichoid sensillum neurons of wild-type flies; with Odorant receptor coreceptor
T2 sequence (Q9VT92 1-391): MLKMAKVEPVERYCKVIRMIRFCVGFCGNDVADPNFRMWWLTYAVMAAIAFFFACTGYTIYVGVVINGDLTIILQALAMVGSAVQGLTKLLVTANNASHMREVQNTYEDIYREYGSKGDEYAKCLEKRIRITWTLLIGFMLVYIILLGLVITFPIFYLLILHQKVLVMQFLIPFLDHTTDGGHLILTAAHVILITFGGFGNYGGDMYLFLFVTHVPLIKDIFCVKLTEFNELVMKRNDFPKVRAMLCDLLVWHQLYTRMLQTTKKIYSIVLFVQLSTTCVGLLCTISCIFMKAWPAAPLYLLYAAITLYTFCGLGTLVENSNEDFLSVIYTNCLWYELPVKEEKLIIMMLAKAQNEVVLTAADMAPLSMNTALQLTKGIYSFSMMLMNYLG
T2 sequence (Q9VNB5 1-486 partner): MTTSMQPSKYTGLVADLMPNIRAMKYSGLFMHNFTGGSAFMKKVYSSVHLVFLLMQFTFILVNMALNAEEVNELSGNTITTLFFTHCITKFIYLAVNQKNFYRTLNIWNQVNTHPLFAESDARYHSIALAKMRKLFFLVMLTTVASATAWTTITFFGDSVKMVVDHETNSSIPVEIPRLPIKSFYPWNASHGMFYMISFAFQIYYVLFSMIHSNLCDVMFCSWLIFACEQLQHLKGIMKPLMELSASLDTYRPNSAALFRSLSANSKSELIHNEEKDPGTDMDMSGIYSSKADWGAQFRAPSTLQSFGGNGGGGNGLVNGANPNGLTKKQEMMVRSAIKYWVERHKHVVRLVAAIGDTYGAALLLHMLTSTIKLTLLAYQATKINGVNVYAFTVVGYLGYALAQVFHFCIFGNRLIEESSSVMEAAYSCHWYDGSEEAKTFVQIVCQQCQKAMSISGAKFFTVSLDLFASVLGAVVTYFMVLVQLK

SMILES	single sensillum recording, spike rate of at1 neurons [1]	single sensillum recording, spike rate of at1 neurons [2]
CCCCCC/C=C\CCCCCCCCCCOC(C)=O [cVA, (Z)-11-octadecen-1-yl acetate]	Drosophila melanogaster OSNs ectopically expressing D.bipOr67d respond to cVA and Z11-20:Ac.	D. melanogaster CS flies exhibited significant responses only to cVA (Fig. 1c)
CCCCCCCC/C=C\CCCCCCCCCCOC(C)=O [Z11-20:Ac, (Z)-11-eicosen-1-yl acetate]	Drosophila melanogaster OSNs ectopically expressing D.bipOr67d respond to cVA and Z11-20:Ac.	–
